Measured values from patent publication US4472304A, “(Amido)N-substituted bleomycins, salts thereof and process for preparation thereof” (Nippon Kayaku Kabushiki Kaisha, priority 1981, dated 1984).

What was measured:
HeLa S3 cells = assay: Growth inhibitory activity against cultured HeLa S3 cells; assay type: cell-based; conditions: 3 days
Experimental: 3. GROWTH INHIBITORY ACTIVITY AGAINST CULTURED HELA S3 CELLS
HeLa S3 cells were inoculated into a medium (MEM with 10% bovine serum) placed in a plastic petri dish. Two days thereafter, a bleomycin was added to the dish. After 3 days of breeding, the number of cells were counted. The percentage growth inhibition was calculated using the following equation:
Percentage inhibition (%)=100×(B-A)/(B-C) where A is the final number of cells after 3 days from the addition of test sample, B is the final number of cells in the control without addition of the test smaple, and C is the number of cells at the time of addition of the test sample.

[1] = test system: Mycobacterium smegmatis ATCC 607; assay: Antimicrobial activity against Mycobacterium smegmatis ATCC 607 (agar plate-cylinder); assay type: cell-based; conditions: standard bleomycin A2 (copper-free) assumed 1,000 mcg potency/mg
Experimental: (§1) 2. ANT[…] MYC[…] ATCC 607 AND BACILLUS SUBTILIS
(§2) The antimicrobial activity was tested against the captioned test organisms by the method of agar plate-cylinder. The activity was recorded on the assumption that the activity of standard sample of bleomycin A2 (copper-free form) is 1,000 mcg poteney/mg.

Bacillus subtilis = assay: Antimicrobial activity against Bacillus subtilis (agar plate-cylinder); assay type: cell-based; conditions: standard bleomycin A2 (copper-free) assumed 1,000 mcg potency/mg
Experimental: as §1, §2

pulmonary fibrosis = assay: Pulmonary toxicity (pulmonary fibrosis) in mice; conditions: for Incidence: Number of mice with pulmonary fibrosis (%) / Incidence: Number of mice with pulmonary fibrosis / Grade: Total score of pulmonary fibrosis/total number of samples / Grade: Total score of pulmonary fibrosis/total number of samples (%): ICR mice, 5 mg/kg i.p. once a day for 10 days; for Incidence: Number of mice with pulmonary fibrosis (%) / Incidence: Number of mice with pulmonary fibrosis: 5 weeks observation; for Incidence: Number of mice with pulmonary fibrosis: mice with fibrosis/total; for Grade: Total score of pulmonary fibrosis/total number of samples / Grade: Total score of pulmonary fibrosis/total number of samples (%): points 0, 1, 2, 4, 6; for Ratio (by comparison with "Bleomycin Complex"): versus Bleomycin Complex
[2] = CDF1/SLC male mice, s.c. once a day for 10 days, Behrens-Karber, daily dose
Experimental: From the mortality during the administration period, LD50 (daily dose) was determined by the method of Behrens-Karber.

| Compound | 50% Growth inhibitory concentration of Cu-free compd. against cultured HeLaS3 cells (ID50) (HeLa S3 cells) [µg/mL] | Antimicrobial potency of Cu-free compound against Mycobacterium smegmatis ATCC 607 [1] [mcg potency/mg] | Antimicrobial potency of Cu-free compound against Bacillus subtilis (Bacillus subtilis) [mcg potency/mg] | Incidence: Number of mice with pulmonary fibrosis (%) (pulmonary fibrosis) | Incidence: Number of mice with pulmonary fibrosis (pulmonary fibrosis) | Grade: Total score of pulmonary fibrosis/total number of samples (pulmonary fibrosis) | Grade: Total score of pulmonary fibrosis/total number of samples (%) (pulmonary fibrosis) | Ratio (by comparison with "Bleomycin Complex") (pulmonary fibrosis) | LD50 during administration period of 10 consecutive days [2] [mg/kg/day] |
| --- | --- | --- | --- | --- | --- | --- | --- | --- | --- |
| 3-((S)-1'-phenylethylamino)propylamino-(amido)N--[1,6-dimethyl-heptyl]-BLM [Compound 32] | 0.83 | 39956 | 298 |  |  |  |  |  |  |
| 4-Guanidinobutylamino-(amido)N--[1',6'-dimethylheptyl]-BLM [Compound 8] | 0.62 | 24880 | 950 |  |  |  |  |  |  |
| Cc1c(N)nc(C(CC(N)=O)NCC(N)C(=O)NCCCNC(C)c2ccccc2)nc1C(=O)NC(C(=O)NC(C)C(O)C(C)C(=O)NC(C(=O)NCCc1nc(-c2nc(C(=O)NCCC[N+](C)(C)CCCN(Cc3ccccc3)Cc3ccccc3)cs2)cs1)C(C)O)C(OC1OC(CO)C(O)C(O)C1OC1OC(CO)C(O)C(OC(N)=O)C1O)c1cnc[nH]1 [Compound 52, 3-{N,N--dimethyl-N--[dibenzylamino)propyl]amino}-propylamino-(amido)N--[3-((S)-1'-phenyl)aminopropyl]-BLM] |  | 21371 | 2372 | 0 | 0/9 | 0/27 | 0 | 0 | 13.9 |
| CCCCCCCCNC(=O)C(N)CNC(CC(N)=O)c1nc(N)c(C)c(C(=O)NC(C(=O)NC(C)C(O)C(C)C(=O)NC(C(=O)NCCc2nc(-c3nc(C(=O)NCCC[N+](C)(C)CCCN(Cc4ccccc4)Cc4ccccc4)cs3)cs2)C(C)O)C(OC2OC(CO)C(O)C(O)C2OC2OC(CO)C(O)C(OC(N)=O)C2O)c2cnc[nH]2)n1 (stereo not drawn) [Compound 53, 3-{N,N--dimethyl-N--[3-(dibenzylamino)propyl]amino}-propylamino-(amido)N--[n-octyl]-BLM] |  | 40703 | 595 | 0 | 0/9 | 0/27 | 0 | 0 | 15.0 |
| CCCCN(CCCC)CCCNC(=O)C(N)CNC(CC(N)=O)c1nc(N)c(C)c(C(=O)NC(C(=O)NC(C)C(O)C(C)C(=O)NC(C(=O)NCCc2nc(-c3nc(C(=O)NCCCN(C)CCCNCC4CCCCCCC4)cs3)cs2)C(C)O)C(OC2OC(CO)C(O)C(O)C2OC2OC(CO)C(O)C(OC(N)=O)C2O)c2cnc[nH]2)n1 (stereo not drawn) [Compound 58, 3-[N--methyl-N--[3-(cyclooctylmethylamino)propyl]amino}-propylamino-(amido)N--[3-(di-n-butyamino)propyl]-BLM] |  | 62418 | 5518 | 0 | 0/9 | 0/27 | 0 | 0 |  |
| CCCCCCCCNC(=O)C(N)CNC(CC(N)=O)c1nc(N)c(C)c(C(=O)NC(C(=O)NC(C)C(O)C(C)C(=O)NC(C(=O)NCCc2nc(-c3nc(C(=O)NCCCN(C)CCCNCC4CCCCCCC4)cs3)cs2)C(C)O)C(OC2OC(CO)C(O)C(O)C2OC2OC(CO)C(O)C(OC(N)=O)C2O)c2cnc[nH]2)n1 (stereo not drawn) [Compound 59, 3-{N--methyl-N--[3-(cyclooctylmethylamino)propyl]amino}propyl-amino-(amido)N--[octyl]-BLM] |  | 65733 | 5473 | 0 | 0/9 | 0/27 | 0 | 0 |  |
| Cc1c(N)nc(C(CC(N)=O)NCC(N)C(=O)NCCCNC(C)c2ccccc2)nc1C(=O)NC(C(=O)NC(C)C(O)C(C)C(=O)NC(C(=O)NCCc1nc(-c2nc(C(=O)NCCCN(C)CCCNCC3CCCCCCC3)cs2)cs1)C(C)O)C(OC1OC(CO)C(O)C(O)C1OC1OC(CO)C(O)C(OC(N)=O)C1O)c1cnc[nH]1 [Compound 60, 3-{N--methyl-N--[3-(cyclooctylmethyl)aminopropyl]amino}-propylamino-(amido)N--[3-((S)-1'-phenylethylamino)propyl]-BLM] |  | 54345 | 7273 | 0 | 0/9 | 0/27 | 0 | 0 |  |
| CCCCCCCCNC(=O)C(N)CNC(CC(N)=O)c1nc(N)c(C)c(C(=O)NC(C(=O)NC(C)C(O)C(C)C(=O)NC(C(=O)NCCc2nc(-c3nc(C(=O)NCCCN(C)CCCNCc4ccc(C#N)cc4)cs3)cs2)C(C)O)C(OC2OC(CO)C(O)C(O)C2OC2OC(CO)C(O)C(OC(N)=O)C2O)c2cnc[nH]2)n1 (stereo not drawn) [Compound 62, 3-{N--methyl-N--[3-(p-cyanobenzylamino)propyl]amino}propylamino-(amido)N--[octyl]-BLM] |  | 49270 | 381 | 0 | 0/9 | 0/27 | 0 | 0 |  |
| Cc1c(N)nc(C(CC(N)=O)NCC(N)C(=O)NCCCNC(C)c2ccccc2)nc1C(=O)NC(C(=O)NC(C)C(O)C(C)C(=O)NC(C(=O)NCCc1nc(-c2nc(C(=O)NCCCN(C)CCCN(Cc3ccc(OCc4ccccc4)c(OCc4ccccc4)c3)Cc3ccc(OCc4ccccc4)c(OCc4ccccc4)c3)cs2)cs1)C(C)O)C(OC1OC(CO)C(O)C(O)C1OC1OC(CO)C(O)C(OC(N)=O)C1O)c1cnc[nH]1 [Compound 64, 3-{N--methyl-N--[3-bis(m,p-dibenzyloxybenzyl)aminopropyl]amino}-propylamino-(amido)N--[3-((S)-1'-phenylethyl)aminopropyl]-BLM] |  | 115 | 23 | 0 | 0/9 | 0/27 | 0 | 0 | > 81.4 |
| CCCCCCCCNC(=O)C(N)CNC(CC(N)=O)c1nc(N)c(C)c(C(=O)NC(C(=O)NC(C)C(O)C(C)C(=O)NC(C(=O)NCCc2nc(-c3nc(C(=O)NCCCN(C)CCCN(Cc4ccc(OCc5ccccc5)c(OCc5ccccc5)c4)Cc4ccc(OCc5ccccc5)c(OCc5ccccc5)c4)cs3)cs2)C(C)O)C(OC2OC(CO)C(O)C(O)C2OC2OC(CO)C(O)C(OC(N)=O)C2O)c2cnc[nH]2)n1 (stereo not drawn) [Compound 65, 3-{N--methyl-N--[3-bis(m,p-dibenzyloxybenzyl)aminopropyl]amino}-propylamino-(amido)N--[n-octyl]-BLM] |  | 153 | 13 | 0 | 0/9 | 0/27 | 0 | 0 | > 75.7 |
